Source: patent publication US12233161B1, “Lipids and lipid nanoparticle formulations” (LONGUIDE BIOPHARMA CORPORATION, priority 2024, dated 2025)
Several values for one entry are separate records, joined by “and”; a condition that tells them apart may be missing. Identical values can stand only once.

Tests used:
[1] = system: mice; assay: In vivo delivery of FLuc-mRNA lipid nanoparticles in mice, in vivo imaging (IVIS)
Outline: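 Mice (n=3) received about 75 μL FLuc-mRNA LNP per mouse intramuscularly (rectus femoris), intravenously (tail vein), intraperitoneally or subcutaneously (back). After injection, D-luciferin (200 μL, 15 mg/mL) was given i.p. 10-15 min before IVIS imaging.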

[2] = system: mice; assay: In vivo delivery of lipid nanoparticles co-loaded with FLuc-mRNA and Cy5-siRNA in mice; details: IV, 1.00:10.00:33.00:56.00, N/P 30
Method: Lipid nanoparticles loaded with nucleic acid drugs were prepared according to step 2, replacing FLuc-mRNA with a mixture of FLuc-mRNA (Hongene Biotech Corporation, Shanghai) and Cy5-siRNA. Each mouse was administered a dose of 3 μg FLuc-mRNA and 3 μg Cy5-siRNA. After a certain period of time, in vivo imaging (PerkinElmer, IVIS Lumina III) was performed. For the detection of FLuc-mRNA expression, 200 μL of a 15 mg/mL D-Luciferin working solution was injected intraperitoneally ten to fifteen minutes before imaging, followed by imaging analysis using the in vivo imaging system. 9. Investigation of the Delivery Efficacy of Lipid Nanoparticle Formulations for Compounds in Mice

[3] = Particle size and PDI of nucleic acid lipid nanoparticle preparations by dynamic light scattering; assay type: physicochemical
Outline: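 LNP solution (about 0.04 mg/mL mRNA before dilution) was diluted in ultrapure water and mixed by gentle pipetting. Particle size and PDI were then measured by dynamic light scattering.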

[4] = Potential characterization of nucleic acid lipid nanoparticle preparations; assay type: physicochemical
Outline: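 Nanoparticles (about 0.04 mg/mL mRNA) were diluted in ultrapure water for Malvern ZEN3700 measurement: 20 μL into 780 μL for potential alone, or 27.5 μL into 200 μL for DLS particle size followed by addition of 600 μL water for potential.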

[5] = DMG-PEG2000:DSPC:Chol:Lipid 1.00:4.00:65.00:30.00, N/P 6, IV, liver
[6] = DMG-PEG2000:DSPC:Chol:Lipid 1.00:4.00:65.00:30.00, N/P 6, IV, lung
[7] = DMG-PEG2000:DSPC:Chol:Lipid 1.00:4.00:65.00:30.00, N/P 6, IV, spleen
[8] = DMG-PEG2000:DSPC:Chol:Lipid 5.00:10.00:29.00:56.00, N/P 42, IV, liver
[9] = DMG-PEG2000:DSPC:Chol:Lipid 5.00:10.00:29.00:56.00, N/P 42, IV, lung
[10] = DMG-PEG2000:DSPC:Chol:Lipid 5.00:10.00:29.00:56.00, N/P 42, IV, spleen
[11] = mRNA LNP, 1.00:10.00:33.00:56.00, N/P 42, IV, liver
[12] = mRNA LNP, 1.00:10.00:33.00:56.00, N/P 42, IV, lung
[13] = mRNA LNP, 1.00:10.00:33.00:56.00, N/P 42, IV, spleen
[14] = DMG-PEG2000:DSPC:Chol:Lipid 1.00:4.00:65.00:30.00, N/P 6, mRNA LNP
[15] = DMG-PEG2000:DSPC:Chol:Lipid 2.18:17.32:60.50:20.00, N/P 30, mRNA LNP
[16] = DMG-PEG2000:DSPC:Chol:Lipid 5.00:10.00:29.00:56.00, N/P 42, mRNA LNP
[17] = DMG-PEG2000:DSPC:Chol:compound 1.00:10.00:33.00:56.00, N/P 42
[18] = DMG-PEG2000:DSPC:Chol:compound 1.00:10.00:33.00:56.00, N/P 48
[19] = LNP co-loaded with Fluc-mRNA and Cy5-siRNA, DMG-PEG2k:DSPC:Chol:L0263 1.00:10.00:33.00:56.00, N/P 30
[20] = mRNA LNP, 1.00:10.00:33.00:56.00, N/P 42

CCCCCCCCCCCCNC(=O)C(O)CN(CCCN(C)CCCN(CC(O)C(=O)NCCCCCCCCCCCC)CC(O)C(=O)NCCCCCCCCCCCC)CC(O)C(=O)NCCCCCCCCCCCC (centres unmarked) [Compound L0263]
IVIS ([1]; DMG-PEG2000:DSPC:Chol:Lipid 1.00:4.00:65.00:30.00, N/P 6, IV, body): 1.07 × 10^7
% of organ targeting [1, 5]: 10.71%
IVIS [1, 5]: 1.34 × 10^6
% of organ targeting [1, 6]: 12.46%
IVIS [1, 6]: 1.55 × 10^6
% of organ targeting [1, 7]: 76.83%
IVIS [1, 7]: 9.58 × 10^6
IVIS ([1]; DMG-PEG2000:DSPC:Chol:Lipid 2.18:17.32:60.50:20.00, N/P 30, IM, whole body scan): 6.05 × 10^6
IVIS ([1]; DMG-PEG2000:DSPC:Chol:Lipid 5.00:10.00:29.00:56.00, N/P 42, IV, body): 1.83 × 10^8
% of organ targeting [1, 8]: 2.01%
IVIS [1, 8]: 4.24 × 10^6
% of organ targeting [1, 9]: 90.12%
IVIS [1, 9]: 1.90 × 10^8
% of organ targeting [1, 10]: 7.87%
IVIS [1, 10]: 1.66 × 10^7
IVIS ([1]; IP, organ not given, DMG-PEG2000:DSPC:Chol:compound 1.00:10.00:33.00:56.00, N/P 42, Fluc-mRNA): 5.82E+09
IVIS ([1]; IV, body, DMG-PEG2000:DSPC:Chol:compound 1.00:10.00:33.00:56.00, N/P 48, Fluc-mRNA): 7.08E+08
% of organ targeting ([1]; IV, liver, DMG-PEG2000:DSPC:Chol:compound 1.00:10.00:33.00:56.00, N/P 48): 0.44%
IVIS ([1]; IV, liver, DMG-PEG2000:DSPC:Chol:compound 1.00:10.00:33.00:56.00, N/P 48, Fluc-mRNA): 1.71E+07
% of organ targeting ([1]; IV, lung, DMG-PEG2000:DSPC:Chol:compound 1.00:10.00:33.00:56.00, N/P 48): 98.92%
IVIS ([1]; IV, lung, DMG-PEG2000:DSPC:Chol:compound 1.00:10.00:33.00:56.00, N/P 48, Fluc-mRNA): 3.83E+09
% of organ targeting ([1]; IV, spleen, DMG-PEG2000:DSPC:Chol:compound 1.00:10.00:33.00:56.00, N/P 48): 0.63%
IVIS ([1]; IV, spleen, DMG-PEG2000:DSPC:Chol:compound 1.00:10.00:33.00:56.00, N/P 48, Fluc-mRNA): 2.46E+07
in vivo delivery efficiency as compared to the benchmark compound SM102 ([1]; certain formulations, Table 2): superior in vivo delivery efficiency
tissue-targeting specificity (lung vs spleen depending on molar percentage of compound) ([1]; certain formulations, Table 2): strong tissue-targeting specificity
% of organ targeting [1, 11]: 0.46%
IVIS [1, 11]: 8.07E+06
% of organ targeting [1, 12]: 99.18%
IVIS [1, 12]: 1.74E+09
% of organ targeting [1, 13]: 0.36%
IVIS [1, 13]: 6.30E+06
IVIS ([1]; mRNA LNP, DMG-PEG2000:DSPC:Chol:lipid 1.00:10.00:33.00:56.00, N/P 42, IV, body): 2.93E+08
% of organ targeting (Fluc) ([2]; 10 min, Heart): 0.2%
Fluc IVIS/g Organ ([2]; 10 min, Heart): 9.76E+05
% of organ targeting (Fluc) ([2]; 10 min, Kidney): 0.1%
Fluc IVIS/g Organ ([2]; 10 min, Kidney): 3.33E+05
% of organ targeting (Fluc) ([2]; 10 min, Liver): 0.1%
Fluc IVIS/g Organ ([2]; 10 min, Liver): 5.97E+05
% of organ targeting (Fluc) ([2]; 10 min, Lung): 97.9%
Fluc IVIS/g Organ ([2]; 10 min, Lung): 4.98E+08
% of organ targeting (Fluc) ([2]; 10 min, Spleen): 1.7%
Fluc IVIS/g Organ ([2]; 10 min, Spleen): 8.58E+06
% of organ targeting (Fluc) ([2]; 20 min, Heart): 0.2%
Fluc IVIS/g Organ ([2]; 20 min, Heart): 3.16E+06
% of organ targeting (Fluc) ([2]; 20 min, Kidney): 0.0%
Fluc IVIS/g Organ ([2]; 20 min, Kidney): 4.37E+05
% of organ targeting (Fluc) ([2]; 20 min, Liver): 0.1%
Fluc IVIS/g Organ ([2]; 20 min, Liver): 1.27E+06
% of organ targeting (Fluc) ([2]; 20 min, Lung): 99.2%
Fluc IVIS/g Organ ([2]; 20 min, Lung): 1.98E+09
% of organ targeting (Fluc) ([2]; 20 min, Spleen): 0.6%
Fluc IVIS/g Organ ([2]; 20 min, Spleen): 1.13E+07
% of organ targeting (Fluc) ([2]; 1 h, Heart): 0.2%
Fluc IVIS/g Organ ([2]; 1 h, Heart): 6.32E+06
% of organ targeting (Fluc) ([2]; 1 h, Kidney): 0.0%
Fluc IVIS/g Organ ([2]; 1 h, Kidney): 1.67E+06
% of organ targeting (Fluc) ([2]; 1 h, Liver): 0.1%
Fluc IVIS/g Organ ([2]; 1 h, Liver): 3.51E+06
% of organ targeting (Fluc) ([2]; 1 h, Lung): 98.1%
Fluc IVIS/g Organ ([2]; 1 h, Lung): 3.70E+09
% of organ targeting (Fluc) ([2]; 1 h, Spleen): 1.6%
Fluc IVIS/g Organ ([2]; 1 h, Spleen): 5.86E+07
PDI [3, 14]: 0.12 ± 0.01
Particle size [3, 14]: 110.83 ± 1.05 nm
PDI [3, 15]: 0.11 ± 0.02
Particle size [3, 15]: 126.23 ± 1.69 nm
PDI [3, 16]: 0.12 ± 0.01
Particle size [3, 16]: 126.40 ± 2.08 nm
PDI [3, 17]: 0.13 and 0.15
Particle size (nm) [3, 17]: 86.62 nm and 139.47 nm and 118.13 nm
PDI [3, 18]: 0.13
Particle size (nm) [3, 18]: 118.33 nm
PDI [3, 19]: 0.14
Particle size (nm) [3, 19]: 95.5 nm
PDI [3, 20]: 0.14
Particle size (nm) [3, 20]: 97.48 nm
Zeta potential (mV) [4, 17]: 11.54 mV
Zeta potential (mV) [4, 18]: 16.93 mV
Zeta potential (mV) [4, 19]: 12.77 mV
Zeta potential (mV) [4, 20]: 11.97 mV
